This is an account of results in patent US20060063210A1, “Histone deacetylase whole cell enzyme assay” (Methylgene, Inc., priority 2004, published 2006).

In general, IC50 refers to the point on the concentration scale where inhibition reaches its midpoint. Higher therefore signals lower potency.

Common to all, as to type: cell-based, human
Common to all, as to settings: pre-incubated with inhibitors 16 hours, mean of at least 2 experiments

The test system of one assay is HDAC (A549 cells). Nature of the assay: whole cell deacetylase (HDAC) assay in A549 cells with Boc-Lys(Ac)-AMC. As to the method:
(§1) Freshly trypsinized cells were dispensed into 96-well black Costar E1A/RIA plates (Corning Inc., Corning, N.Y.). Small molecule substrate Boc-Lys(Ac)-AMC (Bachem Biosciences Inc., King of Prussia, Philadelphia) was added to cell suspension with the final concentration of 300 uM. Cells were placed in 37° C. incubator with 5% CO2 for 90 minutes. Reaction was stopped by adding a freshly prepared Flouor-de-Lys™ deleveloper (Biomol, Plymouth Meeting, Philadelphia) with 1 uM TSA (Biomol) in assay buffer (25 mM Tris, HCl pH8.0, 137 mM NaCl, 2.7 mM KCl, 1 mM MgCl2) plus 1% NP-40. With the presence of 1% NP-40, both excellular and intracellular HDAC activity was measured in cultured cells altogether.
(§2) HDAC enzyme assay in intact cells was carried out as described in Example 3.

The test system of another assay is HDAC (Panc-1 cells). Nature of the assay: whole cell deacetylase (HDAC) assay in Panc-1 cells with Boc-Lys(Ac)-AMC. The procedure: as §1, §2
In another assay the test system is HDAC (Du145 cells). The assay is described as follows: whole cell deacetylase (HDAC) assay in Du145 cells with Boc-Lys(Ac)-AMC. As to the method: as §1, §2
The subject of another assay is HDAC (Jurkat T cells). Nature of the assay: whole cell deacetylase (HDAC) assay in Jurkat T cells with Boc-Lys(Ac)-AMC. As to the method:
as §1, §2

A further assay deals with HDAC (293T cells). Nature of the assay: whole cell deacetylase (HDAC) assay in 293T cells with Boc-Lys(Ac)-AMC. The procedure: as §1, §2
The subject of the next assay is HDAC (HCT116 cells). Nature of the assay: whole cell deacetylase (HDAC) assay in HCT116 cells with Boc-Lys(Ac)-AMC. The procedure:
as §1, §2
Cultured HCT116 cells were counted and distributed to each well of the 96-well plate. […] After addition of Sirtuin substrate (Fluor-de-Lys-SirT1, 500 uM) or HDAC substrate Boc-Lys(Ac)-AMC (300 uM), the cells are further incubated for an additional 2 hours. Reaction was stopped and read as described in Examples 3 and 6.

Take `Nc1ccccc1NC(=O)c1ccc(CNC(=O)OCc2cccnc2)cc1` [MS-275]: the IC50 in the assay with HDAC (A549 cells) was found to be 0.4 µM; with HDAC (Panc-1 cells), 0.5 µM; in the assay on HDAC (Du145 cells), 0.3 µM; in the assay with HDAC (Jurkat T cells), 0.3 µM; in the assay with HDAC (293T cells), 2 µM; with HDAC (HCT116 cells) it was 3 µM.
